Experiments:
[1] = test system: cells from suspension or adhesion culture of IMR90-1 under PFCD condition; assay: Whole-cell patch clamp electrophysiology of PFCD cardiomyocytes; type: cell-based, human; conditions: IMR90-1 PFCD cardiomyocytes, day 30; FIG. 4k
Excerpt: Comparison was made between cells from suspension culture and cells from adhesion culture in terms of electrophysiology of cells by using a whole-cell patch clamp technique. For this purpose, IMR90-1 (from culture on MEF feeder) was suspension or adhesion cultured under PFDC condition. Cells were harvested on day 30 for the analysis. In action potential waveforms in the cells from suspension culture and the cells from adhesion culture, there was no significant difference between the cell populations in terms of RP (resting potential; around −60 mV) (FIGS. 4d and 4e) and APD90 (action potential duration; about 0.7 sec) (FIGS. 4d and 4g). […] ICa (Voltage-gated Ca channel current) was also higher in the cells from suspension culture than the cells from adhesion culture, but the difference was not significant (FIG. 4i). […] IKs (KCQN1 channel current) was higher in the cells from suspension culture than the cells from adhesion culture (FIG. 4j).

[2] = test system: mesoderm-related genes (MSGN1, T, MIXL1 and NODAL); assay: Quantitative PCR for expression of mesoderm-related genes under PFCD condition; type: cell-based, human; conditions: IMR90-1; for expression level of NODAL / expression of MSGN1, T and MIXL1: 1 μM XAV939, 0.3 μM A419259, 10 μM AG1478, 3 μM KY03-I, day 3 to day 4, mRNA on day 4, FIG. 3f; for expression of the mesoderm-related genes (MSGN1, T, MIXL1 and NODAL) vs DMSO control: 2 μM CHIR99021 or 0.3 μM PMA alone, day 0 to day 2, mRNA on day 2, FIG. 3e
Procedure: A human iPS cell line (IMR90-1 cultured on MEF feeder) was cultured in PFCD culture media, to which 2 μM CHIR99021 or 0.3 μM PMA or the both (CHIR99021+PMA) were added for early phase of cardiac differentiation (day 0 to day 2). On day 2, mRNA was extracted the cultured cells and analyzed by quantitative PCR for the expression of mesoderm-related genes (MSGN1, T, MIXL1 and NODAL) (FIG. 3e). As a control, cells were cultured similarly, but with DMSO in place of the test compounds. The gene expression level in the control cells was assigned to one. […] In contrast, the expression of the genes was reduced when PMA was added to the culture. However, the reduction in gene expression by PMA was counteracted and reversed when CHIR99021 was added in combination with PMA (in accordance with the optimal PFCD condition).
A human iPS cell line (IMR90-1 from culture on MEF feeder) was cultured in PFCD media with one of 1 μM XAV939, 0.3 μM A419259, 10 μM AG1478 or 3 μM KY03-I, or all of them (XAV939+A419259+AG1478+KY03-I) in late phase of cardiac differentiation (day 3 to day 4). On day 4, mRNA was extracted from the cultured cells and analyzed by quantitative PCR for the expression of mesoderm-related genes (MSGN1, T, MIXL1 and NODAL) (FIG. 3f).

[3] = test system: monkey ES cell line transfected with an αMHC promoter-driven GFP gene; assay: Chemical screening: GFP fluorometry for cardiac differentiation of monkey ES cells; type: cell-based, cynomolgus monkey; conditions: for intensity of GFP fluorescence relative to control culture (KY02111 only, assigned to one): GFP fluorometry day 9
Procedure: Pluripotent stem cells were cultured in culture media to which the test compounds were added in different concentrations (0.3 μM, 1 μM, 3 μM and 10 μM) in early phase and late phase of differentiation of the cells. Cells from the culture were subjected to GFP fluorometry in accordance with the cardiac differentiation protocol shown in FIG. 1a. Besides the test compounds, 10 μM KY02111 was included in the culture media for the late phase differentiation. The intensity of GFP fluorescence determined in the cells from the control culture, which was cultured with no test compound other than KY02111, was assigned to one.
The scheme of chemical screening is illustrated in FIG. 1a. Compounds were screened for the ability of increasing GFP fluorescence compared with the control (KY02111 alone) using a monkey ES cell line transfected with an αMHC promoter-driven GFP gene (Minami et al., Cell Reports 2, 1448-1460, 2012, which is incorporated herein by reference). The ES cell line was derived from a monkey ES cell line (cynomolgus monkey CMK6.4) by transfecting the cells with a vector which expresses green fluorescent protein (GFP) under control by a promoter of α-MHC gene (a marker of cardiac differentiation). The cells were plated at 4.0×10^5 cells per well in 6 well plates (Asahi Glass/5816-006: Ezview culture plates) and cultured for nine days in an IMDM-based medium for cardiac differentiation (200 ml IMDM medium (Sigma 13390), with 50 ml calf serum (GIBCO 10099-141), 2.5 ml MEM non-essential amino acid solution (Sigma M7145), 2.5 ml penicillin-streptomycin ([…]), 2.5 ml 200 mM L-glutamine, 2 ul 2-mercaptoethanol (Sigma M7522), and 255 ul 5N NaOH). Each test compound was added to the medium at different concentrations in the early phase (day 0 to day 3) and the late phase (day 4 to day 7) of cardiac differentiation. Cells obtained from the culture on day 9 were subjected to GFP fluorometry with a Metamorph imaging system. […]

[4] = test system: monkey ES cell line transfected with an αMHC promoter-driven GFP gene; assay: as above; type: cell-based, cynomolgus monkey; conditions: alone or in combination with KY02111 (10 μM in late phase)
[5] = Induction of cardiac differentiation by a procedure as described in the Examples in WO 2012/026491; type: cell-based
[6] = test system: monkey ES cell line transfected with an α-MHC promoter-driven GFP gene; conditions: culture with PMA (all six compounds); without PMA (other five compounds) only weak fluorescence; FIG. 3a
Excerpt: A monkey ES cell line transfected with an α-MHC promoter-driven GFP gene was suspension cultured under PFCD condition in culture media with PMA (with all the six compounds added) or without PMA (with the five compounds other than PMA added) (FIG. 2a). The cells from the culture with PMA are shown in the left-hand micrographs, and the cells from the culture without PMA are shown in the right-hand micrographs.

[7] = test system: IMR90-1; assay: Count of differentiated cardiomyocytes after culture under PFCD condition; type: cell-based, human; conditions: IMR90-1, PFCD suspension culture, day 14; FIG. 3d
Excerpt: The differentiated cardiomyocytes was counted in the cell population from suspension or adhesion culture under PFCD condition of the pluripotent stem cell lines. The counts of differentiated cells per 2×10^6 undifferentiated cells are shown in the graph of FIG. 2d. The differentiation was more induced by suspension culture than adhesion culture in most of the stem cell lines. The cell count, as well as the flow cytometry, was taken on day 14.
To determine the contribution of each of the six compounds (CHIR99021, PMA, KY03-I, XAV939, AG1478, and A419259) to PFCD under suspension culture condition, IMR90-1 (from culture on MEF feeder) was cultured in media to which different combinations of five of the compounds were added. Cells from the culture were analyzed by flow cytometry using a cTnT antibody for staining. A part of the cells from culture were not treated with the primary antibody to serve as a negative control. Thirty thousand cells from each sample were loaded to a flow cytometer FACSCantoII.
The differentiated cardiomyocytes was counted in a cultured cell population corresponding to that of FIG. 3c. […] The cell count, as well as the flow cytometry, was taken on day 14.

[8] = 10 to 30 μM in late phase, FIG. 1d

With `Cc1cccc(CCN2CCC(C(=O)c3ccc(NS(C)(=O)=O)cc3)CC2)n1` [E4031] as the molecule, how does the “increase in APD90, cells from suspension culture compared with cells from adhesion culture” value [1] read?
The value was “not significantly different”.

What does the source list for `COc1cc2ncnc(Nc3cccc(Cl)c3)c2cc1OC` [AG1478]?
expression level of NODAL [2]: not significantly different; expression of MSGN1, T and MIXL1 [2]: reduced; intensity of GFP fluorescence relative to control culture (KY02111 only, assigned to one) ([3]; test compound 0.3 μM in Early phase (day 0 to day 3), 10 μM KY02111 in late phase): 0.97; intensity of GFP fluorescence relative to control culture (KY02111 only, assigned to one) ([3]; test compound 0.3 μM in Late phase (day 4 to day 7) with 10 μM KY02111): 1.24; intensity of GFP fluorescence relative to control culture (KY02111 only, assigned to one) ([3]; test compound 1 μM in Early phase (day 0 to day 3), 10 μM KY02111 in late phase): 0.89; intensity of GFP fluorescence relative to control culture (KY02111 only, assigned to one) ([3]; test compound 1 μM in Late phase (day 4 to day 7) with 10 μM KY02111): 1.53; intensity of GFP fluorescence relative to control culture (KY02111 only, assigned to one) ([3]; test compound 3 μM in Early phase (day 0 to day 3), 10 μM KY02111 in late phase): 0.35; intensity of GFP fluorescence relative to control culture (KY02111 only, assigned to one) ([3]; test compound 3 μM in Late phase (day 4 to day 7) with 10 μM KY02111): 2.03; intensity of GFP fluorescence relative to control culture (KY02111 only, assigned to one) ([3]; test compound 10 μM in Early phase (day 0 to day 3), 10 μM KY02111 in late phase): 0.05; intensity of GFP fluorescence relative to control culture (KY02111 only, assigned to one) ([3]; test compound 10 μM in Late phase (day 4 to day 7) with 10 μM KY02111): 3.24; cardiac differentiation (screening conclusion) ([3]; under appropriate conditions, Table 1): promoted; increase of cardiac differentiation [4, 8]: two- to three-fold

For `CCS(=O)(=O)N(C)[C@H]1c2cc(C#N)ccc2OC(C)(C)[C@@H]1O` [Chromanol293B], which “increase in APD90, cells from suspension culture compared with cells from adhesion culture” value [1] is on record?
Its value is “significantly higher”.

With `COc1cc2ncnc(Nc3ccc(F)c(Cl)c3)c2cc1OCCCN1CCOCC1` [gefitinib] as the molecule, how does the “increase of cardiac differentiation” value [4, 8] read?
The value was “two- to three-fold”.

For `COc1ccc(CCCC(=O)Nc2nc3ccc(I)cc3s2)cc1OC` [KY03-I, 2-(4-(3,4-dimethoxyphenyl)propanamido)-6-iodobenzothiazole], which “expression level of NODAL” value [2] is on record?
The value was “not significantly different”.

What about the “expression of MSGN1, T and MIXL1” value [2] of the same molecule?
The value was “reduced”.

And the “effect of inducing cardiac differentiation” value [5]?
The value was “found to have the effect of inducing cardiac differentiation”.

For `CCCOc1ccc(CCC(=O)Nc2nc3ccc(I)cc3s2)cc1OC` [SO2077, 2-(3-(3-methoxy-4-propoxyphenyl)propanamido)-6-iodobenzothiazole], which “effect of inducing cardiac differentiation” value [5] is on record?
Its value is “found to have the effect of inducing cardiac differentiation”.

For `CCCCCCCCCCCCCC(=O)O[C@@H]1[C@@H](C)[C@@]2(O)[C@@H](C=C(CO)C[C@]3(O)C(=O)C(C)=C[C@@H]23)[C@@H]2C(C)(C)[C@]12OC(C)=O` [PMA, Phorbol 12-myristate 13-acetate], which “expression of the mesoderm-related genes (MSGN1, T, MIXL1 and NODAL) vs DMSO control” value [2] is on record?
The value was “reduced”.

What about the “GFP fluorescence of colonies” value [6] of the same molecule?
Its value is “mostly GFP-positive”.

And the “cardiomyocyte count on omission of the compound from the six-compound culture” value [7]?
The value was “significant reduction”.

What about the “increase of cardiac differentiation” value ([4]; 0.03 to 0.3 μM in early phase, FIG. 1c) of the same molecule?
Its value is “three- to eight-fold”.

With `Cc1c[nH]c(-c2cnc(NCCNc3ccc(C#N)cn3)nc2-c2ccc(Cl)cc2Cl)n1` [CHIR99021] as the molecule, how does the “expression of the mesoderm-related genes (MSGN1, T, MIXL1 and NODAL) vs DMSO control” value [2] read?
The value was “significantly increased”.

And the “cardiomyocyte count on omission of the compound from the six-compound culture” value [7]?
Its value is “significant reduction”.

— patent publication US10233426B2, “Method for inducing cardiac differentiation of pluripotent stem cell with low-molecular compounds” (KYOTO UNIVERSITY, priority 2014, dated 2019)
